Experimental data: patent US6790859B2, “Reversing advanced glycosylation cross-links using heterocyclic-substituted thiazolium compounds” (Alteon Incorporated, priority 1998, dated 2004)

Assays:
[1] = test system: IgG bound to the surface of RBC (AGE cross-links); experiment: Reversing AGE cross-links: RBC-IgG assay (IgG bound to RBC from streptozotocin-diabetic rats); assay type: cell-based, rat; conditions: RBC of streptozotocin-diabetic rats incubated with test compound in PBS overnight at 37° C.; concentration not given
Description: The activity of the compounds of the present invention to reverse AGE cross-links was evaluated in an in-vitro model, as follows. Blood was collected from streptozotocin-diabetic rats (6 to 8 wk diabetic) in heparinized tubes, centrifuged at 2500×g for 15 min. at […], and the plasma and buffy-coat layers aspirated off. The RBC were washed with PBS (ca. 5 ml PBS per ml blood) three times. Test compounds were dissolved in PBS and the pH adjusted to 7.0, if necessary. Two hundred microliters of washed RBC were added to 2 mL of test compound solution, and the mixture was incubated overnight at 37° C. […] After the overnight incubation, the reaction mixtures were centrifuged and the RBC pellets were washed three times with PBS, followed by diluting 1:30 in PBS. Immunoglobulin G (IgG) bound to the surface of the washed RBCs was then determined. Assay for RBC-IgG: The assay is performed in a Multiscreen-HA, 0.45 μm cellulose mixed esters membrane-sealed 96 well plate (Millipore MAHAS45). The membranes are first wet by filling the wells with 100 uL PBS, and the wells emptied by applying a vacuum to the Millititer vacuum manifold. Three hundred uL of Superblock (pre-warmed to 37° C.) is then added to each well and incubated at 37° C. for one hour. The Superblock is then removed from the wells by application of vacuum, then the wells are washed once with 300 ul of PBS-Tween (0.05%) and three times with PBS. The vacuum is then turned off. One hundred μl of PBS is then added to each well. Each RBC sample is gently vortexed, and 50 uL pipetted into the wells, in sextuplicate. The wells labeled A1-A3 are left for a reagent blank and wells A4-A6 reserved for an antibody blank. Vacuum is then applied to remove the buffer and the RBCs are washed once with PBS. Alkaline phosphatase-labeled rabbit-anti-rat IgG is diluted 1 to 25000 in PBS, and 50 μl is added to triplicate wells of each sample. PBS alone is added to the other three wells of each sample. These will serve as sample blanks to adjust for any endogenous alkaline phosphatase activity. The samples are allowed to stand at room temperature for two hours. The solution is then removed by application of vacuum and the red blood cells are washed with PBS-Tween twice, PBS twice and with TBS twice. The bottom of the plate is rinsed with distilled water and blotted dry with paper towels. To each well is then added 100 μl of p-nitrophenyl phosphate substrate (1 mg/ml in diethanolamine buffer pH 9.5), and the color is allowed to develop for two hours at 37° C. The solutions in each well are then transferred to a 96 well microtiter plate inside the vacuum manifold. One hundred μl of PBS to each well and vacuum applied again to transfer any remaining solution into the microtiter plate. The OD at 410 nm is then read in a Dynatech Plate reader (Sample filter 1 and Ref. filter 4). For data analysis, breaking activity (percent reversal) is expressed as the percent decrease in O.D. caused by incubation of RBC with the test compound compared to RBC incubated in PBS alone. Using the above assay, the following data was generated on the compounds of the present invention: […]

[2] = test system: AGE-BSA cross-linked to rat tail tendon collagen (type 1); experiment: Reversing collagen cross-links: AGE-BSA cross-linked to rat tail tendon collagen-coated plates; assay type: biochemical; conditions: 3 mM test compound, overnight at 37° C.
Description: In a further evaluation of the ability of compounds of the present invention to reverse AGE cross-links between a circulating protein and collagen, AGE-BSA was cross-linked to rat tail tendon collagen (type 1)-coated 96 well microtiter plates, and reversal of cross-linking was determined.
AGE-BSA preparation. AGE-BSA is prepared by incubation of a solution of BSA (400 mg/ml) in 0.4 M sodium phosphate buffer pH 7.4 with an equal volume of 400 mM glucose solution in the same buffer at 37° C. for 12 weeks. The pH of the incubation mixture is monitored weekly and adjusted to pH 7.4 if necessary. After 12 weeks, the AGE-BSA solution is dialyzed against PBS for 48 hours with 4 buffer changes. Protein concentration is determined by the micro-Lowry method.
Assay protocol. […] AGE-BSA was diluted in PBS to a concentration required to obtain maximum cross-linking as determined in a preliminary experiment. […]
Test compounds are dissolved in PBS and pH adjusted to 7.0 if necessary. […] The test compounds and PBS are also added to triplicate wells incubated with BSA, to obtain the blank readings. […]
The plate is washed with PBS-Tween, […] of Rabbit-anti-BSA antibody (1 to 4000 in PBS) is added to each well and the plate is incubated at room temperature for 60 min. […] Optical density is read at 410 nm with the sample filter set to “1” and the reference filter set to “5” on the Dynatech ELISA plate reader. […]

Compound	Percent reversal (breaking activity: percent decrease in O.D. vs RBC incubated in PBS alone) [1] [%]	reversal of AGE cross-links (percent breaking, decrease in OD of TTC-AGE-BSA wells vs PBS) [2] [%]
Cc1sc[n+](CC(=O)N2CCCCC2)c1C.[Br-] [3-(2-(1-piperidinyl)-2-oxoethyl)-4,5-dimethylthiazolium bromide]	37	
Cc1sc[n+](CC(=O)N2CCCC2)c1C.[Br-] [3-(2-(1-pyrrolidinyl)-2-oxoethyl)-4,5-dimethyl-thiazolium bromide]	63	
Cc1sc[n+](CC(=O)c2ccco2)c1C.[Br-] [3-(2-(2-furanyl)-2-oxoethyl)-4,5-dimethylthiazolium bromide]	76	
Cc1sc[n+](CC(=O)c2ccccn2)c1C.[Br-] [3-(2-(2-pyridinyl)-2-oxoethyl)-4,5-dimethyl-thiazolium bromide]	27	
Cc1sc[n+](CC(=O)c2cccs2)c1C.[Br-] [3-(2-(2-thienyl)-2-oxoethyl)-4,5-dimethyl-thiazolium bromide]	53	
Cc1c(CCO)sc[n+]1CC(=O)c1cccs1.[Br-] [3-(2-(2-thienyl)-2-oxoethyl)-4-methyl-5-hydroxyethylthiazolium bromide]	24	
Cc1sc[n+](CC(=O)N2CCSCC2)c1C.[Br-] [3-(2-(4-thiomorpholinyl)-2-oxoethyl)-4,5-dimethylthiazolium bromide]	47	
Cc1sc[n+](CC(=O)N2CC(C)OC(C)C2)c1C.[Br-] (stereo not drawn) [3-[2-(2,6-dimethyl-4-morpholinyl)-2-oxoethyl]-4,5-dimethylthiazolium bromide]	38	
Cc1sc[n+](CC(=O)c2ccc3c(c2)CCC(=O)N3)c1C.[Br-] [3-[2-(2-oxo-1,2,3,4-tetrahydro-6-quinolinyl)-2-oxoethyl]-4,5-dimethylthiazolium bromide]	84	
O=C(C[n+]1ccsc1)c1cc(-c2ccccc2)no1.[Br-] [3-[2-(3-phenyl-5-isoxazolyl)-2-oxoethyl]-thiazolium bromide]	38	15
Cc1sc[n+](CC(=O)N2CCC(Cc3ccccc3)CC2)c1C.[Cl-] [3-[2-(4-benzyl-1-piperidinyl)-2-oxoethyl]-4,5-dimethylthiazolium chloride]	70	
